Data from patent publication US20240307372A1, “COMPOSITIONS AND METHODS TO IMPROVE BENEFIT OF SUBOPTIMALLY ADMINISTERED THERAPEUCTICS FOR THE TREATMENT OF BENIGN AND NEOPLASTIC DISEASES, INFECTIONS, INFLAMMATORY, METABOLIC AND IMMUNOLOGIAL DISEASES” (priority 2023, published 2024).
Like-named read-outs stand apart in the source and are kept apart here.

Experiments:
[1] = tested on: human chronic myeloid leukemia (CML) progenitors; assay: Colony forming cell (CFC) assay on CML patient bone marrow cells, methylcellulose-based medium
Protocol: An in vitro investigation was performed to determine whether TET has efficacy on human chronic myeloid leukemia (CML) stem-like cells. A colony forming cell (CFC) assay was performed on bone marrow cells from a de-novo CML patient.
Human bone marrow light density cells derived from CML patient bone marrow (Conversant Bio, Alabama), were stored in the gaseous phase of liquid nitrogen until required. On the day of the experiment, the cells were thawed rapidly, the contents of the vial were diluted in 10 mL of Iscove's Modified Dulbecco's Medium containing 10% fetal bovine serum (IMDM+10% FBS) and washed by centrifugation (approximately 1200 r.p.m. for 10 minutes, room temperature). The supernatant was discarded and the cell pellets resuspended in a known volume of IMDM+10% FBS. A cell count (3% glacial acetic acid) and viability assessment (trypan blue exclusion test) […] Tetrandrine (10 μM) for 14 days. After treatment, primary and secondary colonies were grown and analyzed by qPCR to determine BCR-ABL or ABL only cells.
Human erythroid (CFU-E and BFU-E) and myeloid (CFU-GM) colony enumeration were performed by trained personnel. In addition, the distribution of colony types as well as general colony and cellular morphology were analyzed. […] For statistical analysis, colony numbers in compound-treated cultures were compared to the solvent control cultures.

[2] = tested on: colorectal (CT-26) xenografts; conditions: colorectal (CT-26) mouse xenografts; cited from earlier work
[3] = IV, cited from earlier work

## 6,6′,7,12-tetramethoxy-2,2′-dimethyl-berbaman [ES-3000]
[1]; 10 μM
  CFU-GM colonies: 26 ± 2
  Total CFC: 26 ± 2
[1]; read-out: Myeloid IC50 ± 95% CI, Human progenitors
  IC50: 9.56 ± 1.25 µM
[2]
  tumor growth: reduced tumor growth by inducing apoptosis
[3]; daily ×5, repeated every 2 weeks
  recommended dose for a Phase II study: 200 mg/m2
[3]; single dose repeated weekly
  recommended dose for a Phase II study: 300 mg/m2
